Legend:
[1] = taken hours after ingestion; cited from earlier work
5-HT2A receptor [2] = molecular target: T1, 5-HT2A receptor (Homo sapiens, UniProt P28223); experiment: biochemical; assay type: binding; conditions: for Selectivity (binding ratios) 5-HT2A : 5-HT1A / Selectivity (binding ratios) 5-HT2A : 5-HT2B / Selectivity (binding ratios) 5-HT2A : 5-HT2C: ratio of Ki values
5-HT2B receptor [3] = molecular target: T2, 5-HT2B receptor (Homo sapiens, UniProt P41595); experiment: 5-HT2B receptor inositol monophosphate; assay type: cell-based; conditions: for Emax: read-out: % maximum stimulation, 5-HT2B stimulation of IP-1 formation
T2 sequence (P41595 whole entry): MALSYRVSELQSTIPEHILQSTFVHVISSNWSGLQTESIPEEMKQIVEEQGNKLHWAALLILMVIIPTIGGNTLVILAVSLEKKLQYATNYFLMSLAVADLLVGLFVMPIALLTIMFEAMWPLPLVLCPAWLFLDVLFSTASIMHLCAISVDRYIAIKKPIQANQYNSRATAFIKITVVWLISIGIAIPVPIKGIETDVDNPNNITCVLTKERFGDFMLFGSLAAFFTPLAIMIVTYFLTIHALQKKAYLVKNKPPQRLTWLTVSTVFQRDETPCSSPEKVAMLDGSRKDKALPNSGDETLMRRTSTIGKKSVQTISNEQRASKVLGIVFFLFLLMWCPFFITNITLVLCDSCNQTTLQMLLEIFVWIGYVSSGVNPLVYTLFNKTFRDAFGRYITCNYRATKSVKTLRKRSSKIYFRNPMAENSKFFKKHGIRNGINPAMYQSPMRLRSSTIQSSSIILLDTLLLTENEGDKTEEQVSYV

hNET [4] = molecular target: T3, hNET (Homo sapiens, UniProt P23975); experiment: Release of preloaded [^3H]NE from HEK-hNET cells; assay type: cell-based; conditions: for % maximum release, hNET [^3H]NE: relative to maximum release induced by METH (0.3–1 μM)
T3 sequence (P23975 whole entry): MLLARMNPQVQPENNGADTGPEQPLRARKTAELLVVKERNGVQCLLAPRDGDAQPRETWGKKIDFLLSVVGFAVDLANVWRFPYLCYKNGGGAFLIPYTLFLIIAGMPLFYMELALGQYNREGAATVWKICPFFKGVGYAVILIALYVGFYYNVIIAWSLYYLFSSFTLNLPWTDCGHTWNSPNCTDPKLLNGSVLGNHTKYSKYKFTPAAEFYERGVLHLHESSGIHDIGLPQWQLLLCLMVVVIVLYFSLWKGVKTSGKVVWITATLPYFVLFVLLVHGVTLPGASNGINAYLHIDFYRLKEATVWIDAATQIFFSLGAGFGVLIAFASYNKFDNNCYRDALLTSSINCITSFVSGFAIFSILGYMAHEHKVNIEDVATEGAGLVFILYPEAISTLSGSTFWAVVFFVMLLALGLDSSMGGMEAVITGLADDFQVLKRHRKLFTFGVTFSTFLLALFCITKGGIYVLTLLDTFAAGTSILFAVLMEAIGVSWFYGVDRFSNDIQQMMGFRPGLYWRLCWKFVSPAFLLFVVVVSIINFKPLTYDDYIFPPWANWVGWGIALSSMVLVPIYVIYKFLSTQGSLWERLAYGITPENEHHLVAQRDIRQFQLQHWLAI

human 5-HT1A receptor [5] = molecular target: T4, human 5-HT1A receptor (Homo sapiens, UniProt P08908); experiment: 5-HT1A receptor [^35S]GTPγS binding stimulation; assay type: biochemical; conditions: for Emax: read-out: % maximum stimulation, 5-HT1A stimulation of [^35S]GTPγS binding
T4 sequence (P08908 1-422): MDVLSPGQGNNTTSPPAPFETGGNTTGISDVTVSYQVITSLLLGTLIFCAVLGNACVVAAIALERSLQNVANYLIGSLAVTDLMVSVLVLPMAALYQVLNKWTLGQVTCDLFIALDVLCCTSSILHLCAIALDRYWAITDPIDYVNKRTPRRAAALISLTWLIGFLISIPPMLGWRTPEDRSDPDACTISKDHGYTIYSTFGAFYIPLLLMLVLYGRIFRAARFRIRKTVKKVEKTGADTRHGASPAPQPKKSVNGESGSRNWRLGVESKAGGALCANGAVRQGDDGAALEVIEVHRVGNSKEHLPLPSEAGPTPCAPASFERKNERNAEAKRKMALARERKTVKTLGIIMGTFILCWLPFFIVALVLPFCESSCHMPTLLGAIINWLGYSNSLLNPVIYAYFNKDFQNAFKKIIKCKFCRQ

human 5-HT1A receptor [6] = molecular target: T4, human 5-HT1A receptor; experiment: 5-HT1A receptor [^3H]8-OH-DPAT radioligand binding
5-HT2B receptor [7] = molecular target: T2, 5-HT2B receptor; experiment: 5-HT2B receptor [^3H]5-HT binding
5-HT2A receptor [8] = molecular target: T1, 5-HT2A receptor; experiment: cell-based; assay type: cell-based; conditions: for EC50: EC50, 5-HT2A stimulation of IP-1 formation, mean ± sem; for Selectivity (functional ratios) 5-HT2A: 5-HT1A / Selectivity (functional ratios) 5-HT2A: 5-HT2B / Selectivity (functional ratios) 5-HT2A: 5-HT2C: ratio of EC50 values; for Emax: read-out: % maximum stimulation, 5-HT2A stimulation of IP-1 formation
hDAT [9] = molecular target: T5, hDAT (Homo sapiens, UniProt Q01959); experiment: Inhibition of [^3H]DA uptake by HEK-hDAT cells; assay type: cell-based
T5 sequence (Q01959 whole entry): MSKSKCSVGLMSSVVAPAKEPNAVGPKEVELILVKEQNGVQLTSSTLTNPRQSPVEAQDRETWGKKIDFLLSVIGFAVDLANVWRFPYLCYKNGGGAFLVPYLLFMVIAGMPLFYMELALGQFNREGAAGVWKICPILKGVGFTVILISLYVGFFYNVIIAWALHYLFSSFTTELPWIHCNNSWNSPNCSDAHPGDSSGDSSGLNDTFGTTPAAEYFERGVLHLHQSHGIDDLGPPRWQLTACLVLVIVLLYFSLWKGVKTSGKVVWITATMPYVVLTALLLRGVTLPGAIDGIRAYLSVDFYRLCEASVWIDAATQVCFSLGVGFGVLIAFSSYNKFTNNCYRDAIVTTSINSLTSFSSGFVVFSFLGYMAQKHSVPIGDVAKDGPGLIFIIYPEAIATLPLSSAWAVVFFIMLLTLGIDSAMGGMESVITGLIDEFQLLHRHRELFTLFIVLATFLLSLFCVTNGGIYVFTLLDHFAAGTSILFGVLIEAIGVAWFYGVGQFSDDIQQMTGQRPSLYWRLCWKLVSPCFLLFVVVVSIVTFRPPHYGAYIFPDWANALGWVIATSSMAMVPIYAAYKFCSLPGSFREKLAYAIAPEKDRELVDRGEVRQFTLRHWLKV

hSERT [10] = molecular target: T6, hSERT (Homo sapiens, UniProt P31645); experiment: Inhibition of [^3H]5-HT uptake by HEK-hSERT cells; assay type: cell-based
T6 sequence (P31645 whole entry): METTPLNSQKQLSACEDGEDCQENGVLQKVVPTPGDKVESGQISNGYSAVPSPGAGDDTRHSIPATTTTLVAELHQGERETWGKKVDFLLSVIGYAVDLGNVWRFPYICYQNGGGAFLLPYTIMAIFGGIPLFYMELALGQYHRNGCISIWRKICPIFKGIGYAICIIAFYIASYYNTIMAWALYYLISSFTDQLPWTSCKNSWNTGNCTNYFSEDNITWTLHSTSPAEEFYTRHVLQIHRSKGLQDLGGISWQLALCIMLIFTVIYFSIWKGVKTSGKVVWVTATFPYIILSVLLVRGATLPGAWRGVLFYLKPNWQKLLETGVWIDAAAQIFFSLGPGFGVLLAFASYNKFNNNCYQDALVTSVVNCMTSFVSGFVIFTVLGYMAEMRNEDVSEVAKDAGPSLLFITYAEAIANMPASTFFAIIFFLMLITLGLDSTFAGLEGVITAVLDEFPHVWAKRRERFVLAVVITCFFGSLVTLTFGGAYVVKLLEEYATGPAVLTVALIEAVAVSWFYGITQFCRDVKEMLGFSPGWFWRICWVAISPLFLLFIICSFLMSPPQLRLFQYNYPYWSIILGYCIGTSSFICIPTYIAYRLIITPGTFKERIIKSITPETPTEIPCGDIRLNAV

5-HT2C receptor [11] = molecular target: T7, 5-HT2C receptor (Homo sapiens, UniProt P28335); experiment: cell-based; conditions: for Emax: read-out: % maximum stimulation, 5-HT2C stimulation of IP-1 formation
T7 sequence (P28335 33-458): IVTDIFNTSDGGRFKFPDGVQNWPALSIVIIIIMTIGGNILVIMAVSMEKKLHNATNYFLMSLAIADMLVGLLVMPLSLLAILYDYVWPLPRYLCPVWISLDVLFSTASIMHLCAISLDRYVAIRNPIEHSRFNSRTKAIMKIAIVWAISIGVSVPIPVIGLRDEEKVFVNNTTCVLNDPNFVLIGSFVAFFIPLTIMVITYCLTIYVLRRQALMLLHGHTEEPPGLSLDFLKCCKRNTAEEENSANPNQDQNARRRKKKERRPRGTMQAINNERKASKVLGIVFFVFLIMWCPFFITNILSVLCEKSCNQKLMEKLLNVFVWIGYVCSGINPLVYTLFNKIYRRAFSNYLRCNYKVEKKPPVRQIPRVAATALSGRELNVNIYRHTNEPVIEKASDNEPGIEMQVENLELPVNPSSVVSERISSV

hDAT [12] = molecular target: T5, hDAT; experiment: Inhibition of [^125I]RTI-55 binding to hDAT
hSERT [13] = molecular target: T6, hSERT; experiment: Release of preloaded [^3H]5-HT from HEK-hSERT cells; assay type: cell-based; conditions: for % maximum release, hSERT [^3H]5-HT: relative to maximum release induced by METH (0.3–1 mM)
hDAT [14] = molecular target: T5, hDAT; experiment: Release of preloaded [^3H]DA from HEK-hDAT cells; assay type: cell-based; conditions: for % maximum release, hDAT [^3H]DA: relative to maximum release induced by METH (1–10 μM)
hNET [15] = molecular target: T3, hNET; experiment: biochemical; assay type: binding
hNET [16] = molecular target: T3, hNET; experiment: cell-based
hSERT [17] = molecular target: T6, hSERT; experiment: Inhibition of [^125I]RTI-55 binding to hSERT
[18] = Human blood concentrations after ingestion; conditions: converted from cited ng/ml values
[19] = cited from earlier work
5-HT2C receptor [20] = molecular target: T7, 5-HT2C receptor; conditions: read-out: affinity of [^125I]DOI binding sites, h5-HT2C; HEK-5-HT2C; radioligand affinity
hDAT [21] = molecular target: T5, hDAT; conditions: read-out: affinity of [^125I]RTI-55 binding sites, DAT; HEK-hDAT; cited from earlier work
hNET [22] = molecular target: T3, hNET; conditions: read-out: affinity of [^125I]RTI-55 binding sites, NET; HEK-hNET; cited from earlier work

T1 sequence (P28223 whole entry): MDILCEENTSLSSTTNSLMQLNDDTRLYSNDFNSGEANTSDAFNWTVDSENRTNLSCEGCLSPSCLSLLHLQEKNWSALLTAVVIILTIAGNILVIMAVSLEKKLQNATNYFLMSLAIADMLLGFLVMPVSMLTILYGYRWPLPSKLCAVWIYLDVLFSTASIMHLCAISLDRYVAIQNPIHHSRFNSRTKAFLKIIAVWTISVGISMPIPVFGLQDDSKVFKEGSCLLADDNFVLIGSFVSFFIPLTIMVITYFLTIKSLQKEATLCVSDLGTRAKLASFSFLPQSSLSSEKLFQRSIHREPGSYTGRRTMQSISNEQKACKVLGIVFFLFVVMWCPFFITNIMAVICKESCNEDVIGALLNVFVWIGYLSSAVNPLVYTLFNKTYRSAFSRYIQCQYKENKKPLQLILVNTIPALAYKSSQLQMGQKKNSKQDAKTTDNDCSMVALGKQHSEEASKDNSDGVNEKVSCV

Row | SMILES | Ki (5-HT2A receptor [2]) | Selectivity (binding ratios) 5-HT2A : 5-HT1A (5-HT2A receptor [2]) | Selectivity (binding ratios) 5-HT2A : 5-HT2B (5-HT2A receptor [2]) | Selectivity (binding ratios) 5-HT2A : 5-HT2C (5-HT2A receptor [2]) | EC50 (5-HT2B receptor [3]) | Emax (5-HT2B receptor [3]) | EC50 (hNET [4]) | % maximum release, hNET [^3H]NE (hNET [4]) | EC50 (human 5-HT1A receptor [5]) | Emax (human 5-HT1A receptor [5]) | Ki (5-HT2B receptor [7]) | EC50 (5-HT2A receptor [8]) | Selectivity (functional ratios) 5-HT2A: 5-HT2B (5-HT2A receptor [8]) | Selectivity (functional ratios) 5-HT2A: 5-HT2C (5-HT2A receptor [8]) | Emax (5-HT2A receptor [8]) | IC50 (hDAT [9]) | IC50 (hSERT [10]) | EC50 (5-HT2C receptor [11]) | Emax (5-HT2C receptor [11]) | Ki (hDAT [12]) | also measured
1 | COc1cc(CCNCc2ccccc2OC)c(OC)cc1Cl [25C-NBOMe] | – | – | – | – | – | – | – | – | – | – | – | – | – | – | – | – | – | – | – | – | Human blood concentration [1]: 2.80 ng/mL
2 | CCc1cc(OC)c(CCNCc2ccccc2OC)cc1OC [25E-NBOMe, 2-(4-ethyl-2,5-dimethoxyphenyl)-N-(2-methoxybenzyl)ethanamine] | 0.000127 ± 1.9e-05 µM | 13200 | 8.7 | 2.4 | 0.0235 ± 0.006 µM | 49.4% | > 66 µM | 17.1 ± 5.9% | 13.7 ± 5.6 µM | 38% | 0.00111 ± 0.00032 µM | 0.0005 ± 0.00014 µM | 47 | 1.9 | 87.1% | 34 ± 10 µM | 1.44 ± 0.14 µM | 0.00095 ± 0.00018 µM | 91.8% | 19.6 ± 1.2 µM | Ki (human 5-HT1A receptor [6]): 1.68 ± 0.35 µM; Selectivity (functional ratios) 5-HT2A: 5-HT1A (5-HT2A receptor [8]): 27,000; EC50 (hSERT [13]): > 100 µM; % maximum release, hSERT [^3H]5-HT (hSERT [13]): 0.21 ± 0.77%; EC50 (hDAT [14]): > 85 µM; % maximum release, hDAT [^3H]DA (hDAT [14]): 5.8 ± 6.4%; Ki (hNET [15]): 5.4 ± 1 µM; IC50 (hNET [16]): 2.31 ± 0.7 µM; Ki (hSERT [17]): 1.59 ± 0.12 µM
3 | COc1ccc(OC)c(CCNCc2ccccc2OC)c1 [25H-NBOMe, 2-(2,5-dimethoxyphenyl)-N-(2-methoxybenzyl)ethanamine] | 0.0049 ± 0.0013 µM | 920 | 13 | 3.3 | 0.463 ± 0.071 µM | 37.7% | > 66 µM | 21 ± 12% | 28.4 ± 8.6 µM | 52% | 0.0629 ± 0.0075 µM | 0.0407 ± 0.0081 µM | 11 | 0.34 | 85.9% | > 100 µM | 2.08 ± 0.31 µM | 0.0138 ± 0.0026 µM | 95.5% | 81.4 ± 8.9 µM | blood concentration (molar) [18]: ~ 0.9 nM; Human blood concentration [1]: 0.29 ng/mL; Selectivity (functional ratios) 5-HT2A: 5-HT1A (5-HT2A receptor [8]): 700; EC50 (hSERT [13]): > 100 µM; % maximum release, hSERT [^3H]5-HT (hSERT [13]): −0.27 ± 0.49%; EC50 (hDAT [14]): > 100 µM; % maximum release, hDAT [^3H]DA (hDAT [14]): −0.18 ± 0.26%; Ki (hNET [15]): 16.3 ± 2.6 µM; IC50 (hNET [16]): 3.65 ± 0.88 µM; Ki (hSERT [17]): 2.22 ± 0.34 µM
4 | COc1cc(CCNCc2ccccc2O)c(OC)cc1I [25I-NBOH, 2-(((4-iodo-2,5-dimethoxyphenethyl)amino)methyl)phenol] | 0.000169 ± 1.3e-05 µM | 13100 | 11 | 6.1 | 0.111 ± 0.013 µM | 21.3% | > 100 µM | 16 ± 16% | 37 ± 13 µM | 74% | 0.00191 ± 0.00048 µM | 0.00076 ± 0.00026 µM | 146 | 3.1 | 87.5% | 30.7 ± 5 µM | 1.72 ± 0.25 µM | 0.00238 ± 0.00072 µM | 94% | 8.5 ± 0.38 µM | Ki (human 5-HT1A receptor [6]): 2.22 ± 0.59 µM; EC50 (hSERT [13]): > 100 µM; % maximum release, hSERT [^3H]5-HT (hSERT [13]): −0.27 ± 0.40%; EC50 (hDAT [14]): > 100 µM; % maximum release, hDAT [^3H]DA (hDAT [14]): −0.56 ± 0.35%; Ki (hNET [15]): 4.06 ± 0.65 µM; IC50 (hNET [16]): 0.629 ± 0.093 µM; Ki (hSERT [17]): 1.22 ± 0.21 µM
5 | COc1cc(CCNCc2ccccc2OC)c(OC)cc1I [25I-NBOMe] | – | – | – | – | – | – | – | – | – | – | – | – | – | – | – | – | – | – | – | – | blood concentration (molar) [18]: ~ 8 nM; Postmortem brain tissue concentration [19]: 2.54 ng/g; Postmortem peripheral blood concentration [19]: 0.405 ng/mL
6 | COc1cc(CC(C)N)c(OC)cc1I (stereo not shown) [[^125I]DOI, [^125I]2,5-dimethoxy-4-iodoamphetamine] | – | – | – | – | – | – | – | – | – | – | – | – | – | – | – | – | – | – | – | – | Kd (5-HT2C receptor [20]): 0.00418 µM
7 | COC(=O)[C@H]1[C@@H](c2ccc(I)cc2)CC2CC[C@H]1N2C [[^125I]RTI-55, [^125I]methyl (1R,2S,3S)-3-(4-iodophenyl)-8-methyl-8-azabicyclo[3.2.1]octane-2-carboxylate] | – | – | – | – | – | – | – | – | – | – | – | – | – | – | – | – | – | – | – | – | Kd (hDAT [21]): 0.00183 µM; Kd (hNET [22]): 0.0121 µM
